Experimental findings from article PMC4790425 (Journal of medicinal chemistry, 2015) are described below.

For one test, the target named is T1, rCCK1R-Ala317,321,325 (Rattus norvegicus, UniProt P30551, I332A/L340A/V336A).
T1 sequence (P30551 1-444 I332A/V336A/L340A): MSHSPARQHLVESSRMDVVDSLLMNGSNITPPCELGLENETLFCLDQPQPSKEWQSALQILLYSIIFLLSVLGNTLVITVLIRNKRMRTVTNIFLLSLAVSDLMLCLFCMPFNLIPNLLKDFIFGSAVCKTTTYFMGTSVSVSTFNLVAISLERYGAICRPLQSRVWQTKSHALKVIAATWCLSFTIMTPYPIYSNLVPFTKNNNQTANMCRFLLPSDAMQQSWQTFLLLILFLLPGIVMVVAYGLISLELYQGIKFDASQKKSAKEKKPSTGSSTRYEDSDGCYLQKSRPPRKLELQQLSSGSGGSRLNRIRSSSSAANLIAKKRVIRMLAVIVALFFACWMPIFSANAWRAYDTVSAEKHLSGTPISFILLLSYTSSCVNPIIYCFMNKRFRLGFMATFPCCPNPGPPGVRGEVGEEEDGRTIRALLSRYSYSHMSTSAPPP
The class given is binding. The conditions noted are these: non-dimerizing rat mutant.

The target in the next test is T2, wild type rat CCK1R (Rattus norvegicus, UniProt P30551).
T2 sequence (P30551 1-444): T1 sequence (P30551 1-444 I332A/V336A/L340A) with A332I, A336V, A340L
Nature of the test: Competition binding with 125I-BDZ-1, receptor expressed in COS cells.

In test [1] the target is T3, CCK1R WT (Homo sapiens, UniProt P32238).
T3 sequence (P32238 1-428): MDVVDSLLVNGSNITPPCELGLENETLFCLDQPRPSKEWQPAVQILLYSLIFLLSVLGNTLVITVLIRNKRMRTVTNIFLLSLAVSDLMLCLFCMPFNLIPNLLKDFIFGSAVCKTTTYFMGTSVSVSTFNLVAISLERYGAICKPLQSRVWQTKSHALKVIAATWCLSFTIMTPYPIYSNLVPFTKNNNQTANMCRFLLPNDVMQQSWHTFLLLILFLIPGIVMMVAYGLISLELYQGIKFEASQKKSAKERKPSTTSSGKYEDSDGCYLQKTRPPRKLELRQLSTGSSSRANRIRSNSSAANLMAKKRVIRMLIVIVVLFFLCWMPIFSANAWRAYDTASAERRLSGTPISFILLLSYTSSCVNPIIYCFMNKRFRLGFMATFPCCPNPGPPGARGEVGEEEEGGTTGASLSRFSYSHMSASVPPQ
The test can be described thus: Competition binding with 125I-BDZ-1, CHO membranes. To be noted: for α (cooperativity constant): 125I-BDZ-1 radioligand, allosteric ternary complex model.

Test [2] concerns the target T4, CCK2R WT (Homo sapiens, UniProt P32239).
T4 sequence (P32239 1-447): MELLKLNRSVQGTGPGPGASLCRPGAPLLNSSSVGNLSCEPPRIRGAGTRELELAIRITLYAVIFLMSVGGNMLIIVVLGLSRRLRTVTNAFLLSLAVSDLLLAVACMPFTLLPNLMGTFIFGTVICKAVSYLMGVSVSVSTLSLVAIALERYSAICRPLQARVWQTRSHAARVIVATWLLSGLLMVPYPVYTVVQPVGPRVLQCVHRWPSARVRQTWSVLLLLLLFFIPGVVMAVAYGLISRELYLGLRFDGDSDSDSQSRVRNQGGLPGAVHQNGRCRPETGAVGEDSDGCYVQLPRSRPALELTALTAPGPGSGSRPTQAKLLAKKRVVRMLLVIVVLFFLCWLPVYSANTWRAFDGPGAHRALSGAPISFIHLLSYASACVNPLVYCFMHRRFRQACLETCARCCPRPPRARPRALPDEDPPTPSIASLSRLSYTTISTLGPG
Nature of the test: Competition binding with 125I-CCK, CHO membranes. To be noted: for α (cooperativity constant): 125I-CCK radioligand, allosteric ternary complex model; for inhibition of saturable 125I-CCK binding: maximal inhibition at CCK2R.

The target of test [3] is T4, CCK2R WT. Nature of the test: Intracellular calcium response, CHO-CCK2R cells. The format is cell-based.
Test [4] has as its target T3, CCK1R WT. Nature of the test: Competition binding with 125I-CCK, CHO membranes. The conditions noted are these: 125I-CCK radioligand; allosteric ternary complex model.
For test [5], the target named is T3, CCK1R WT. The conditions noted are these: compared with CCK at the CCK1R.
Test [6] concerns the target T4, CCK2R WT. Nature of the test: Competition binding with 125I-BDZ-2, CHO membranes. The conditions noted are these: 125I-BDZ-2 radioligand; allosteric ternary complex model.

Numbering of substitutions follows the chain as printed. Entries after “also recorded” stand apart in the source; their conditions may differ.

With `CN1C(=O)[C@@H](NC(=O)Nc2cccc(I)c2)N=C(c2ccccc2)c2ccccc21` [BDZ-1, (S)-1-(3-iodophenyl)-3-(1-methyl-2-oxo-5-phenyl-2,3-dihydro-1H-enzo[e][1,4]diazepin-3-yl)urea], the “pKi, BDZ-1 binding affinity” value at rCCK1R-Ala317,321,325 stood at 9.66 ± 0.09; at wild type rat CCK1R, 9.55 ± 0.25; at CCK1R WT [1] (wild type human CCK1R), 8.38 ± 0.16.

With `CC(C)N(Cc1ccccc1)C(=O)CN1C(=O)[C@@H](Cc2c[nH]c3ccccc23)c2nnc(-c3ccccc3)n2-c2ccccc21` [CE-326597, N-benzyl-2-[(4S)-4-(1H-indol-3-ylmethyl)-5-oxo-1-phenyl-4,5-dihydro-6H-[1,2,4]triazolo[4,3-a][1,5]benzodiazepin-6-yl]-N-isopropylacetamide], the “α (cooperativity constant)” value is listed as 0.32 ± 0.01 on CCK2R WT [2], around 0.00 on CCK1R WT [4], 0.47 ± 0.06 at CCK2R WT [6] and 0.54 ± 0.06 at CCK1R WT [1]. In addition, the “inhibition of saturable 125I-CCK binding” value on CCK2R WT [2] is given as “approximately 60%”. The “biological (agonist) response at the CCK2R” value at CCK2R WT [3] was “weak partial agonist; also recorded: very weak partial agonist”. On CCK1R WT [5], the “maximal intracellular calcium response” value was “not statistically different from those elicited by CCK”.

For the compound `Cc1cc(C)cc(C[C@H]2CCCCN2C(=O)CN2C(=O)[C@@H](Cc3n[nH]c4ccccc34)c3nnc(-c4ccccc4)n3-c3ccccc32)c1` [PF-04756956, (4S)-6-{2-[(2R)-2-(3,5-dimethylbenzyl)piperidin-1-yl]-2-oxoethyl}-4-(1H-indazol-3-ylmethyl)-1-phenyl-4H-[1,2,4]triazolo[4,3-a][1,5]benzodiazepin-5(6H)-one], the “α (cooperativity constant)” value on CCK2R WT [2] was 0.32 ± 0.07; at CCK1R WT [4] it was around 0.0; on CCK2R WT [6], 0.60 ± 0.04; at CCK1R WT [1], 0.65 ± 0.08. Also, the “inhibition of saturable 125I-CCK binding” value at CCK2R WT [2] was “approximately 60%”. For the same compound, the “biological (agonist) response at the CCK2R” value on CCK2R WT [3] is “no agonist activity at all; also recorded: no biological response”. Besides, the “maximal intracellular calcium response” value on CCK1R WT [5] was “not statistically different from those elicited by CCK”.
